According to patent US6362180B1, “Imidazopyridines for the treatment of neurological disorders” (Bristol-Myers Squibb Pharma Company, priority 1997, dated 2002):

Row | SMILES | melting point
1 | CCc1nc2c(-c3cc4c(c(Br)c3C)OCC4)ncnc2n1C(C1CC1)C1CC1 [Example 5232, 6-(7-bromo-6-methyl-2,3-dihydrobenzofuran-5-yl)-9-dicyclopropylmethyl-8-ethylpurine] | 179 to 180 °C
2 | CCCCC(CC)n1c(CC)nc2c(-c3c(C)cc(C)cc3C)ncnc21 (stereo not drawn) [Example 2, 8-Ethyl-9-(1-ethylpentyl)-6-(2,4,6-trimethylphenyl)purine] | 99 to 100 °C

The remaining lines, values ahead:

Row | melting point | SMILES
3 | 177 to 178 °C | CCc1nc2c(-c3cc4cc(Br)oc4cc3C)ncnc2n1C(C1CC1)C1CC1 [Example 5231, 6-(2-bromo-6-methylbenzofuran-5-yl)-9-dicyclopropylmethyl-8-ethylpurine]
4 | 139 to 140 °C | CCc1nc2c(-c3ccc(OC)cc3Cl)ncnc2n1C(C1CC1)C1CC1 [Example 831, 6-(2-Chloro-4-methoxyphenyl)-9-dicyclopropylmethyl-8-ethylpurine]
5 | 139 to 141 °C | CCc1nc2c(-c3cc4ccoc4cc3C)ncnc2n1C(C1CC1)C1CC1 [Example 5201, 9-dicyclopropylmethyl-8-ethyl-6-(6-methylbenzofuran-5-yl)purine]
6 | 147 to 148 °C | CCc1nc2c(-c3cc4c(cc3C)OCC4)ncnc2n1C(C1CC1)C1CC1 [Example 5001, 9-Dicyclopropylmethyl-8-ethyl-6-(6-methyl-2,3-dihydrobenzofuran-5-yl)purine]
